Assay results reported in PMC5707064, “Proteoglycan-targeting applied to hypoxia-activated prodrug therapy in chondrosarcoma: first proof-of-concept” (Oncotarget, 2017).
Read-outs that look alike come from different tables or passages of the source.

Experiments:
HEMC-SS xenograft model = test: In vivo antitumor efficacy on HEMC-SS xenograft model; set-up: species or system SCID mice; details: for Antitumor effect (tumor volume vs controls): 6 i.v. injections at 4-day intervals, 8-QA and 8 47.0 μmol/kg, 10-QA 46.7 μmol/kg
Procedure: In vivo studies were carried out on 50 female Severe Combined ImmunoDeficiency (SCID) mice aged 4–5 weeks old (Janvier Labs). All animal studies were carried out in accordance with the directive 2010/63/EU after approval by the institutional review board (C2E2A, authorization #CE85-12).
To obtain in vivo tumors, 10^7 HEMC-SS cells in 100 μL of PBS were injected with 100 μL of Matrigel® (BD Biosiences) subcutaneously into the right flank of the mice.
The antitumor efficiency of 8-QA was first studied respectively to its non-QA equivalent (8) used as negative control for proteoglycan targeting. In a second independent study, we evaluated the antitumor activity of non-hypoxia activated derivative (10-QA) used as negative control of hypoxia activation, respectively to another control group. For both studies, at 21 days post-cell inoculation mice were randomized into three or two groups (10–12 animals per group). Treatment protocol consisted in 6 doses at 4-day intervals injected by i.v route: 8-QA (47.0 μmol/kg) and 10-QA (46.7 μmol/kg)were injected at 50% of Maximum Tolerated Dose (MTD) while non-targeted derivative 8 (47.0 μmol/kg) was injected at equimolar dose of 8-QA. All molecules were diluted in saline with 2% ethanol. Control animals received vehicle according to the same schedule.
Tumor volume (TV) was calculated using the following formula:
TV (mm^3) = [length x (width)^2]/2.
Tumor Growth Inhibition (TGI) was calculated as follows: TGI (%) = [1-(Tn/Cn)] × 100, where Tn is the tumor volume of the treated group at day n and Cn the tumor volume of the control group at day n.
Data are represented as means ± SD. For antitumor efficiency and mouse weight monitoring, statistical significance was determined using two-way ANOVA. For tumor weight, mitosis number and hematological analyses, statistical significance was determined using one-way ANOVA. Both tests were followed by Tukey's post-hoc multiple comparisons test. Results were considered significant at p < 0.05.

HEMC-SS spheroids = test: In vitro proliferation assay (AlamarBlue), HEMC-SS Day 10 spheroids; format: cell-based, human; details: for IC50: Homo sapiens, 24 hours exposure then 48 hours in normoxia; for HCR (hypoxic-cytotoxic ratio) Spheroids: normoxia vs hypoxia IC50
Procedure: To generate HEMC-SS spheroids, cells were harvested from culture flasks by trypsinization and seeded in 96-well non-adherent plates (Nunc) with 100 μL of 0.5% methylcellulose (Bio-Techne) diluted in the corresponding medium at a density of 1000 cells per well. Cultures were maintained in a 5% CO2 humidified environment at 37°C.
(§1) After trypsinization, HEMC-SS cells were seeded in 96-well plates at a density of 20.10^3 cells in 150 μL of the corresponding culture medium and allowed to adhere overnight. For 3D cell culture, Day 10 spheroids were used. Increasing drug concentrations diluted in DMSO (maintaining final DMSO concentration at 0.5% (v/v)) were added. After plate incubations for 24 hours in normoxic (21% O2, 5% CO2, 37 °C) or hypoxic (N2, O2 < 0.3%, 37 °C) conditions, the culture media were removed and 2D and 3D cells were washed with PBS and left to grow for 48 hours in normoxic conditions. Viability of cells cultured in monolayer or spheroids was quantified by AlamarBlue assay. Cytotoxic activity was expressed as the drug concentration that inhibited cell growth by 50% (IC50). Experiments were performed in triplicates. Data are represented as means ± SD. Statistical significance was determined using one-way ANOVA followed by Tukey's post-hoc multiple comparisons test. Results were considered significant at p < 0.05.

HEMC-SS xenograft tumors = test: Characterization of treated tumors (histology, western blot, immunohistochemistry); format: in vivo, SCID mice; details: for γH2AX-positive cells in pimonidazole-positive hypoxic tumor areas: immunostaining on consecutive tumor sections
Procedure: The day after the last dose, 50% of animals of each group were euthanized by CO2 inhalation, and tumors were sampled for histology and immunohistochemistry analyses (n≥3 tumors samples per group of treatment).
Approximately 30 μg of proteins from tumors (n = 3 independent tumor samples per group of treatment) recovered one day after last dose were loaded onto 10% acrylamide gels and separated by SDS-PAGE. Proteins were then transferred to nitrocellulose membranes (Millipore) and incubated with specific primary antibodies p53S15 (Cell Signaling), p21 (Santa Cruz), p-Chk1 (S345) (Cell Signaling) or GAPDH (Santa Cruz) used as housekeeping protein. Antibody-antigen interaction was evidenced by chemiluminescence (Amersham) using HRP-conjugated secondary antibodies (Southern Biotech). Signal was detected and quantified using Image Lab software (BioRad). Data are represented as means ± SD. Statistical significance was determined using one-way ANOVA followed by Tukey's post-hoc multiple comparisons test. Results were considered significant at p < 0.05.
For tumors, the exogenous hypoxia marker pimonidazole hydrochloride (Hypoxyprobe™) was i.p.-injected at 60 mg/kg one hour before mice were euthanized. Tumors were removed, fixed in 10% neutral buffered formalin, and embedded in paraffin. For spheroid cultures, pimonidazole was added at a final concentration of 200 μM two hours before fixation and paraffin-embedding.
Five μm-thick sections were cut and adhered to poly-L-Lysine-coated glass microscope slides. After deparaffinization and rehydration, slides were stained by haematoxylin–eosin (H&E) or Alcian blue (pH 1) to visualize aggrecan or used for immunohistochemistry. After antigen retrieval, endogenous peroxidase quench and saturation, slides were incubated with the primary antibody: anti-Ki 67 (Abcam) rabbit polyclonal antibody (1/2000, 11 hours, RT), anti-pimonidazole (Hypoxyprobe™) mouse monoclonal antibody (1/100, 30 minutes, RT) or anti-phospho-histone-H2AX (Merck Millipore) mouse monoclonal antibody (1/2000, 11 hours, RT). HRP-conjugated rabbit anti-mouse IgG1 secondary antibody (Hypoxyprobe, 1/100, 30 minutes, RT) was used to detect pimonidazole adduct and a biotinylated goat anti-mouse IgG1 secondary antibody (Vector Laboratories, 1/500, 1 hour) was used to detect anti-Ki-67 and anti-phospho-histone-H2AX. Biotin was then complexed with streptavidin-coupled HRP (Vector Laboratories, 1/500, 30 minutes). HRP was detected using a DAB ultravision detection system (Thermo Scientific).

[1] = tested on: HEMC-SS chondrosarcoma cells (monolayer); test: In vitro proliferation assay (AlamarBlue), HEMC-SS monolayer culture; format: cell-based, human; details: for IC50: Homo sapiens; for HCR (hypoxic-cytotoxic ratio) Monolayer: normoxia vs hypoxia IC50
Procedure: Human HEMC-SS chondrosarcoma cell line was obtained from the European Collection of Authenticated Cell Cultures and cultured in DMEM/F12 medium (Life Technologies) supplemented with 10% fetal calf serum (Dutscher) and 4 μg/mL gentamicin.
as §1

[2] = tested on: aggrecan from bovine articular cartilage; test: Surface plasmon resonance (SPR) binding to immobilized aggrecan; details: for Binding to aggrecan (sensorgrams): analytes injected at 0.0625-1 mM, 600 seconds; for Kd: steady-state affinity analysis, ligand: immobilized aggrecan, triplicate, read-out: Dissociation constant (KD)
Procedure: SPR assay was carried out on a Biacore T200 instrument (GE Healthcare) with a CM4 sensor chip (GE Healthcare). To immobilize aggrecan from bovine articular cartilage (Sigma-Aldrich), the sensor chip was first activated using a 1:1 mixture of 0.2 M 1-ethyl-3-(3-dimethylaminopropyl)carbodiimide hydrochloride and 0.5 M N-hydroxysuccinimide (amine coupling kit, GE Healthcare) at a flow rate of 5 μL/min for 10 minutes. Aggrecan was then coated on the sensor chip at 400 μg/mL in running buffer HBS-P^+ 1X (0.01 M HEPES, 0.15 M NaCl, 0.05% v/v surfactant p20, pH 7.4) with 6 mM hexadecyltrimethylammoniumbromide (CTAB) at 5 μL/min to a level of ~500 response units. Unoccupied binding sites were blocked using 1 M ethanolamine (pH 8.5) (Amine coupling kit, GE Healthcare) at 5 μL/min during 10 minutes. The studied molecules (analytes) were diluted in running buffer HBS-P^+ 1X before application to the sensor chip at 30 μL/min. Regeneration of the sensor chips was achieved using 2 M NaCl solution during 150 seconds. Dissociation constants (KD) were determined using Biacore T200 Evaluation software with a “steady-state affinity analysis” after injection of five different concentrations of analytes.

[3] = Side-effect evaluation (mouse weight, hematology, articular cartilage); format: in vivo, SCID mice; details: compared to controls; for Mouse weight loss during treatment: 6 i.v. injections at 4-day intervals
Procedure: To assess side effects, mouse weight was monitored and pathology analyses on healthy articular cartilage and hematological analyses were carried out at 24 hours after the last injection. Approximately 50 μL of blood, obtained by retro-orbital sampling, were analyzed on a Melet Schloesing MS9-5 Hematology Analyzer (n = 5 blood samples per group of treatment) (Diamond diagnostics).
Mouse paws (n = 5 per group of treatment) were fixed in 10% neutral buffer formalin, decalcified with 4.13% EDTA and 0.2% paraformaldehyde in PBS for 96 hours using KOS microwave tissue processor (Milestone), and embedded in paraffin. Then, 4–5-μm thick sections were stained by Toluidine Blue (pH 2.5) to visualize aggrecan or by Masson trichrome to visualize collagen. All images were captured with NanoZoomer (Hamamatsu).

HEMC-SS cells = test: Cell cycle determination and apoptosis (Annexin V) evaluation by flow cytometry; format: cell-based, human
Procedure: At 24 hours before treatment, 1.10^6 HEMC-SS cells were seeded in 6-well plates (Nunc) at 3 mL/well of corresponding culture media. Cells were treated with 8-QA compound at 25 μM, 50 μM, or 100 μM final concentrations for 24 hours, under either normoxic (21% O2, 5% CO2, 37°C) or hypoxic (N2, O2 < 0.3%, N2, 37°C) conditions. After incubation, the cells were harvested by trypsinization. The cell suspension containing both floating and adherent cells was centrifuged (400 g, 8 min at +4°C) in PBS. Cell cycle analyses were carried out by resuspending cells in 500 μL of ribonuclease 1 (1 mg/mL) added with 500 μL of propidium iodide (1 mg/mL) (Sigma Aldrich), and apoptotic cells were detected using the Annexin V-FITC kit (Miltenyi Biotec). The cell cycle distribution and proportion of apoptotic cells were analyzed by flow cytometrey (LSR II flow cytometer, BD Biosciences). Experiments were performed in triplicates. Data are represented as means ± SD. For cell cycle analyses, statistical significance was determined using two-way ANOVA followed by Tukey's post-hoc multiple comparison test. For Annexin V test, significance was determined using two-way ANOVA followed by Bonferroni's post-hoc multiple comparison test.

[4] = tested on: human osteosarcoma Saos-2 cells; test: Cytotoxic activity on osteosarcoma Saos-2 cells; format: cell-based; details: hypoxic conditions, unpublished data of the authors
[5] = hypoxia (N2, O2 < 0.3%), read-out: IC50 Spheroids Hypoxia
[6] = normoxia (21% O2), read-out: IC50 Spheroids Normoxia
[7] = hypoxia (N2, O2 < 0.3%), 24 hours exposure then 48 hours in normoxia, read-out: IC50 Monolayer Hypoxia
[8] = normoxia (21% O2), 24 hours exposure then 48 hours in normoxia, read-out: IC50 Monolayer Normoxia
[9] = tumors sampled one day after last injection

SMILES | Antitumor effect (tumor volume vs controls) (HEMC-SS xenograft model) | IC50 (HEMC-SS spheroids; [5]) [µM] | IC50 (HEMC-SS spheroids; [6]) [µM] | S/M (spheroid/monolayer cytotoxic ratio) Hypoxia (HEMC-SS spheroids) | S/M (spheroid/monolayer cytotoxic ratio) Normoxia (HEMC-SS spheroids) | HCR (hypoxic-cytotoxic ratio) Spheroids (HEMC-SS spheroids) | γH2AX-positive cells in pimonidazole-positive hypoxic tumor areas (HEMC-SS xenograft tumors) | IC50 [1, 7] [µM] | IC50 [1, 8] [µM] | HCR (hypoxic-cytotoxic ratio) Monolayer [1] | Binding to aggrecan (sensorgrams) [2] | Mouse weight loss during treatment [3] | Kd [2] [µM] | other results
CCCNP(=O)(OCc1cnc([N+](=O)[O-])n1C)N(CCCl)CCCl (stereo not shown) [compound 8] | no antitumor efficacy | 5.7 ± 1.2 | 99.4 ± 5.2 | 1.3 | 3.1 | 17.4 | did not cause any γH2AX-positive cells | 4.3 ± 1.2 | 32.5 ± 4.3 | 7.5 | no affinity | did not cause any weight loss |  | White blood cell count ([3]; 24 hours after the last dose): significant decrease in white blood cell count
C[N+](C)(C)CCCNP(=O)(OCc1ccccc1)N(CCCl)CCCl (stereo not shown) [10-QA] | no antitumor effect | > 200 | > 200 |  |  |  | did not cause any γH2AX-positive cells | > 200 | > 200 |  | dose-dependent binding | did not cause any weight loss | 4100 | IC50 ([1]; read-out: IC50 (cytotoxicity in any of the experimental conditions)): > 200 µM
Cn1c(COP(=O)(NCCC[N+](C)(C)C)N(CCCl)CCCl)cnc1[N+](=O)[O-] (stereo not shown) [8-QA] | significant antitumor effect | 31.8 ± 5.5 | 101 ± 32.6 | 7.4 | 3.4 | 3.1 | strong increase of γH2AX-positive cells | 4.3 ± 1.2 | 29.3 ± 8 | 6.8 | dose-dependent binding | did not cause any weight loss | 890 | Cell cycle distribution in hypoxia (HEMC-SS cells; hypoxia (N2, O2 < 0.3%), 25, 50, 100 μM for 24 hours): high accumulation of cells in S and SubG0/G1 phases; Annexin V positive cells (cell death vs control) (HEMC-SS cells; hypoxia, 100 μM, 24 hours): 4.1 fold; Cell cycle distribution in normoxia (HEMC-SS cells; normoxia (21% O2), 25, 50, 100 μM for 24 hours): increase in S-phase; Tumor growth inhibition (TGI) at D41 (HEMC-SS xenograft model; 47 μmol/kg i.v., q4d x 6, day after last injection (D41)): 62.1%; Tumor weight (HEMC-SS xenograft model; one day after the last injection, normalized to control group): significant decrease; Mitotic index in tumor tissues (HEMC-SS xenograft tumors; H&E, tumors sampled at D41, 47.0 μmol/kg i.v. q4d x 6): 9.7 ± 9.0 mitosis per 10 fields; Phosphorylated-p53 (S15) in tumors, western blot (HEMC-SS xenograft tumors; [9]): significant increased of phosphorylated-p53 (S15); p21 in tumors, western blot (HEMC-SS xenograft tumors; [9]): induction of p21; p-CHK1 in treated tumor samples, western blot (HEMC-SS xenograft tumors; [9]): no increase of p-CHK1; IC50 [4]: 132 ± 29 µM
